# Test results as given in patent US11919905B2, “Substituted benzo[f]imidazo[1,2-a][1,4]diazepines as anesthetics” (HANGZHOU ADAMERCK PHARMLABS INC., priority 2017, dated 2024).
# What was measured:
# mice [1] = experiment: Multiple (9 times) i.v. administrations: duration of disappearance of righting reflex in mice; type: in vivo; details: 20 mg/kg i.v.
# Protocol: Animals in each group were given the corresponding drug solution multiple times by the tail vein injection (i.v.) in accordance with the corresponding group, 0.1 ml per mouse each time, for 9 times of consecutive injections (the administration group mice were injected when the righting reflex was recovered). The durations of each disappearance of righting reflex were recorded, and the data was expressed as an average.
# mice [2] = experiment: Single i.v. administration: autonomous activity of mice; type: in vivo; details: single i.v. 20 mg/kg
# Protocol: Animals in each group were tested for their autonomous activities, each mouse for 10 minutes. After that, the animals in each group were given a single corresponding drug solution by the tail vein injection (i.v.) according to the corresponding group, 0.1 ml per 10 g body weight, and the autonomous activity of the mice was measured immediately after the administration, and the recording time was 50 min. Data were expressed as mean±standard deviation. Wherein, the dosage of propofol was 20 mg/kg.
compound,measurement,setting,value
"CC(C)c1cccc(C(C)C)c1O [Propofol, reference compound]",Percentage of extension of righting reflex disappearance,mice [1]; administration 1,100%
same,righting reflex disappearance time,mice [1]; administration 1,4.0 min
same,Percentage of extension of righting reflex disappearance,mice [1]; administration 2,144%
same,righting reflex disappearance time,mice [1]; administration 2,5.8 min
same,Percentage of extension of righting reflex disappearance,mice [1]; administration 3,259%
same,righting reflex disappearance time,mice [1]; administration 3,10.4 min
same,Percentage of extension of righting reflex disappearance,mice [1]; administration 4,300%
same,righting reflex disappearance time,mice [1]; administration 4,12.1 min
same,Percentage of extension of righting reflex disappearance,mice [1]; administration 5,292%
same,righting reflex disappearance time,mice [1]; administration 5,11.7 min
same,Percentage of extension of righting reflex disappearance,mice [1]; administration 6,378%
same,righting reflex disappearance time,mice [1]; administration 6,15.2 min
same,Percentage of extension of righting reflex disappearance,mice [1]; administration 7,439%
same,righting reflex disappearance time,mice [1]; administration 7,17.6 min
same,Percentage of extension of righting reflex disappearance,mice [1]; administration 8,404%
same,righting reflex disappearance time,mice [1]; administration 8,16.2 min
same,Percentage of extension of righting reflex disappearance,mice [1]; administration 9,426%
same,righting reflex disappearance time,mice [1]; administration 9,17.1 min
same,time after administration at which mice were awake,mice [2],5 to 10 min
same,time after administration until autonomic activities basically recovered,mice [2],15 min
